# Where “and” joins values, the source holds several entries; their conditions need not be identical. Equal entries are not always repeated. No end group written: not given here.
# Assays:
# SOD [1] = experiment: In vivo SOD upregulation in rat brain and heart after iv injection (Western immunoblot); parameters: species or system Sprague-Dawley rats; conditions: 1.2 mg/kg iv, 6 hours post injection
# Experimental: (§1) In vivo experiments were carried out in Sprague-Dawley rats (300-325 g) with solutions of peptide compounds PEP-1 and PEP-3. The animals were injected intravenously (iv) via the tail vein with a peptide compound. Each animal received one injection of peptide compound in normal saline at total dose equivalent of 1.2 or 2.4 mg peptide compound/kg body weight. The animals were sacrificed by decapitation at 6 hours post injection and dissected to isolate brain and heart organs, which were frozen at −70° C. for subsequent analysis by Western immunoblots.
# (§2) Each tissue was thawed and homogenized in a Down's homogenizer using ten volumes of homogenizer buffer (see, Adams et al., […], 77: 221-233 (2000); buffer as described in Adams et al., J. Leukoc. Biol., 62: 865-875 […]) to obtain a crude cytoplasmic fraction. The tissue homogenates were centrifuged (14,000×g for 5 minutes at 4° C.) to yield the supernatant purified cytoplasmic protein fractions for Western immunoblot analysis as described in Adams et al. (J. Cell. Biochem., 77: 221-233 (2000)). A 10 μg sample of each protein fraction was then separated by SDS polyacrylamide gel electrophoresis (SDS-PAGE) and analyzed for SOD and CAT content by Western blot assay as above.
# (§3) Controls for measurement of unstimulated levels of SOD were obtained from two vehicle-only (i.e., no peptide compound), injected rats that were sacrificed at 6 hours post injection. Both had essentially the same unstimulated level of SOD. Standard quantities of each cytoplasmic fraction (10 μg) were loaded on a lane of a gel for electrophoretic separation and Western immunoblot analysis (Adams et al., J. Cell. Biochem., 77: 221-233 (2000)). The stained gels were photographed and scanned by laser densitometry to quantify intensities in comparison to enzyme levels for control vehicle treated rats.
# SOD [2] = experiment: SOD level in brain of old C57 Black mice, 14 days oral gavage on various schedules; format: in vivo; conditions: 18-month old mice
# Experimental: Adult 18-month old C57 Black mice (“old mice”) were treated with 0.25 mg/kg of PEP-1 by oral gavage for a period of 14 days. The animals belonged to the following 5 treatment groups (n=3 per group): • Group 1: Control, untreated • Group 2: Treatment once per week • Group 3: Treatment twice per week • Group 4: Treatment every other day • Group 5: Daily treatment
# At the end of 14 days, all animals were sacrificed and their brains were harvested and the SOD level was analyzed by Western immunoblot as described above. A SOD standard (“M”) was also run alongside the samples. The SOD levels were quantitated by densitometry measurements of the blot.
# SOD [3] = experiment: SOD level in brain of old C57 Black mice, 30 days daily oral gavage; format: in vivo; conditions: 18-month old mice
# Experimental: As a further examination of the dose-response effect on upregulating SOD in “old” adult C57 Black mice, young and old animals were divided into the following treatment groups (n=3): • Animals 1-3: Young, 4-month old mice, untreated • Animals 4-6: Old, 18-month old mice, untreated • Animals 7-9: Old, 18-month old mice treated daily by oral gavage 0.33 mg/kg of PEP-1 • Animals 10-1 2: Old, 18-month old mice treated daily by oral gavage 3.3 mg/kg of PEP-1
# At the end of 30 days, all animals were sacrificed and their brains were harvested. SOD level was analyzed by Western immunoblot. A SOD standard (“M”) was also run alongside the samples. The SOD levels were quantitated by densitometry measurements of the immunoblot.
# [4] = Locomotor activity test (spontaneous behavioral arousal) in old C57 Black mice; format: in vivo
# Experimental: Six weeks after assignment of the doses, surviving animals were examined in a standard locomotor activity test used to detect evidence of a reversal of age-related declines in spontaneous behavioral arousal (Forster et al., 1996; Dubey et al., Arch. Biochem. Biophys., 333: 189-197 (1996)). Arousal levels were measured using a Digiscan apparatus (Omnitech, model RXYZCM, Omnitech Electronics, Columbus, Ohio, USA). Each mouse was placed in a clear acrylic chamber (40.5 cm×40.5 cm×30.5 cm) for a […] session. The acrylic chamber was placed in a metal frame lined with arrays of photocells. A wooden cabinet with sheets of insulation enclosed the acrylic chamber and the metal frame. Fans provided an 80-db ambient noise level within the chamber. Movements of the mouse within the horizontal plane interrupted the photobeams, which were automatically recorded by a computer within 1-minute time samples. The measure used in this study was the average horizontal photobeam interruptions per minute, over a 16-minute testing session (horizontal counts/min).
# The locomotor activity test was performed on blinded Groups 1, 2, 3, 4, 5, and 6, (young untreated control, old untreated control, old treated with PEP-1 at 0.025 mg/kg 0.075 mg/kg, 0.25 mg/kg, and 0.75 mg/kg, respectively) six weeks after assignment of the doses. A significant difference between the young and old untreated control groups was found (p<0.05), verifying previous findings of the age-associated decrease in spontaneous behavioral arousal.
# [5] = Survival (longevity) of old C57 Black mice over 70-day treatment; format: in vivo; conditions: old 16-month mice
# Source text: This study was designed to examine the in vivo effect of daily administration of a representative peptide compound, PEP-1, to reverse age-related declines in spontaneous behavioral arousal as measured by effect on locomotor activity and longevity of “old” adult individuals. In this study, C57 Black mice were divided into the following treatment groups (n=10 per group): • Group 1: Young, 4-month old mice, untreated • Group 2: Old, 16-month old mice, untreated • Group 3: Old, 16-month old mice treated daily by oral gavage with 0.025 mg/kg of PEP-1
# Group 4: Old, 16-month old mice treated daily by oral gavage with 0.075 mg/kg of PEP-1 • Group 5: Old, 16-month old mice treated daily by oral gavage with 0.25 mg/kg of PEP-1 • Group 6: Old, 16-month old mice treated daily by oral gavage with 0.75 mg/kg of PEP-1 • Group 7: Old, 16-month old mice treated daily by oral gavage with 2.5 mg/kg of PEP-1
# At the end of a 70-day treatment period, all of the young, untreated mice (Group 1) were alive (i.e., to an age of 6.5 months), but 3 of the 10 untreated old mice (Group 2) had died. Also, 2 animals in each of Groups 3 and 4 died during this same period.
# CAT = experiment: In vivo CAT upregulation in rat brain and heart after iv injection (Western immunoblot); parameters: species or system Sprague-Dawley rats; conditions: 1.2 mg/kg iv, 6 hours post injection
# Experimental: as §1, §2, §3
# SOD-1 = experiment: PEP-2-dependent upregulation of SOD-1 in rat cortical cell cultures (Western immunoblot, densitometry); format: cell-based; conditions: 5 hours, rat brain cortical cells, vs vehicle control
# Experimental: Primary cortical cultures were obtained by growing newborn rat brain cortical cells in Delbecco's modified Eagle medium supplemented with 100 units/ml of penicillin G, 100 μg/ml of streptomycin, and 10% fetal calf serum. The cells were isolated from the E-21 cortex of rat brain, plated at a density of 1×10^5 per ml and grown to confluence within four to five days in an atmosphere containing air and 5% CO2 at 37° C. as described in Cornell-Bell et al., Science, 247: 470473 (1990) and Cell Calcium, 12: 185-204 (1991). Cultures were grown in 20 ml flasks as a monolayer and then exposed to various concentrations of peptide for studies of the effects of PEP-2 on upregulation of the gene for SOD. Cultures of the rat brain cortical cells were incubated with 1 ng/ml, 10 ng/ml, and 100 ng/ml of peptide compound PEP-2 for durations of 5 hours. Control cultures were treated in the same manner, but were not incubated with PEP-2.
# Cytoplasmic proteins were isolated according to published methods (Adams et al., J. Leukoc. Biol. 62: 865-873 (1997)). The cell cultures were washed once in phosphate buffer saline (PBS) containing 20 mM EDTA and then suspended in 250 μl of freshly prepared lysis buffer (20 mM Hepes, pH 7.9, 10 mM KCl, 300 mM NaCl, 1 mM MgCl2, 0.1% Triton X-100 nonionic detergent, 20% glycerol, 0.5 mM dithiothreitol (DTT), freshly supplemented with inhibitors as described in Adams et al., J. Biol. Chem., 77: 221-233 (2000)). The suspensions were then incubated for at least 10 minutes on ice to lyse cells and then centrifuged (14,000×g for 5 minutes at 4° C.) to pellet cell debris. The supernatant cytoplasmic fractions were removed and stored as aliquots at −80° C. for analysis. […]
# The cytoplasmic proteins were separated by SDS-PAGE using 5 μg/lane on the gels for analysis by Western immunoblots. […] SOD expression was detected in the Western blots using anti-SOD rabbit polyclonal antibody (Rockland, Inc., Gilbertville, Pa.). The Western blots were also analyzed by laser densitometry to quantify SOD protein upregulation. […]
substance,measurement,setting,value
[Ac] Asp Gly Glu Ala (Ac-DGEA) [PEP-1],SOD (Fold increase),SOD [1]; rat brain,1.0 fold
same,SOD (Fold increase),SOD [1]; rat heart,1.0 fold
same,SOD level elevation compared to control group,SOD [2]; 0.25 mg/kg oral gavage daily,over 4.5 fold
same,SOD level elevation compared to control group,SOD [2]; 0.25 mg/kg oral gavage every other day,over 4.5 fold
same,increase in SOD level compared to control group,SOD [2]; 0.25 mg/kg oral gavage twice per week,2.3 fold
same,increase in SOD level compared to untreated old control,SOD [3]; 0.33 mg/kg oral daily,2.9 fold
same,level of SOD expression in brain tissue compared to untreated old control,SOD [3]; 3.3 mg/kg oral daily,4.8 fold
same,SOD-related breakdown fragments,"SOD [3]; brain, 0.33 or 3.3 mg/kg oral daily",no change
same,horizontal locomotor activity (horizontal counts/min),"[4]; 0.025 mg/kg daily oral, six weeks (Group 3)",failed to differ significantly from the old controls
same,horizontal locomotor activity (horizontal counts/min),"[4]; 0.075 mg/kg daily oral, six weeks (Group 4)",higher than that of the old controls
same,horizontal locomotor activity (horizontal counts/min),"[4]; 0.25 mg/kg daily oral, six weeks (Group 5)",higher than that of the old controls
same,horizontal locomotor activity (horizontal counts/min),"[4]; 0.75 mg/kg daily oral, six weeks (Group 6)",higher than that of the old controls
same,animals that died during 70-day treatment period,"[5]; 0.025 mg/kg daily oral gavage, n=10 (Group 3)",2 animals
same,animals that died during 70-day treatment period,"[5]; 0.075 mg/kg daily oral gavage, n=10 (Group 4)",2 animals
same,survival over 70-day treatment period,"[5]; 0.25 mg/kg daily oral gavage, n=10 (Group 5)",all of the old mice treated with PEP-1 survived
same,survival over 70-day treatment period,"[5]; 0.75 mg/kg daily oral gavage, n=10 (Group 6)",all of the old mice treated with PEP-1 survived
same,survival over 70-day treatment period,"[5]; 2.5 mg/kg daily oral gavage, n=10 (Group 7)",all of the old mice treated with PEP-1 survived
same,CAT (Fold increase),CAT; rat brain,1.0 fold
same,CAT (Fold increase),CAT; rat heart,1.1 fold
[Ac] Asp Gly Glu Ala Leu (Ac-DGEAL) [PEP-2],Fold-Increase in SOD Expression,SOD-1; 1 ng/ml,2 fold and 1.8 fold
same,Fold-Increase in SOD Expression,SOD-1; 10 ng/ml,1.9 fold
same,Fold-Increase in SOD Expression,SOD-1; 100 ng/ml,2.1 fold
[Ac] Asp Gly Leu Glu Ala (Ac-DGLEA) [PEP-3],SOD (Fold increase),SOD [1]; rat brain,1.0 fold
same,SOD (Fold increase),SOD [1]; rat heart,1.2 fold
same,CAT (Fold increase),CAT; rat brain,1.0 fold
same,CAT (Fold increase),CAT; rat heart,1.0 fold

# Source: patent US20050130902A1, “Peptide compounds for counteracting reactive oxygen species and free radicals” (priority 2001, published 2005)
